Experimental data published in the supplement of paper PMC10307832.

Experiments:
Assay in all cases: relative viability (nuclei count vs DMSO), 5 days (fraction); higher = more cells survive
NCI-H2405 = system: NCI-H2405
Outline: (§1)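 The day after seeding in 1536-well plates, lung cancer cell lines were treated by pin tool with a single drug, or with a fixed anchor-drug dose together with five library-drug doses (not always all listed) in √10 steps. After 5 days, a combined fix-and-stain solution (final 0.05% Triton X-100, 1% formaldehyde, 1 ug/ml Hoechst) was added. Nuclei counted on 4× images gave relative viability as treated counts over vehicle counts, reported as the median of duplicate plates.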

NCI-H2009 = system: NCI-H2009
Outline: as §1

LOU-NH91 = system: LOU-NH91
Outline: as §1

NCI-H1623 = system: NCI-H1623
Outline: as §1

NCI-H647 = system: NCI-H647
Outline: as §1

A549 = system: A549
Outline: as §1

Cc1cn(-c2cc(NC(=O)c3ccc(C)c(Nc4nccc(-c5cccnc5)n4)c3)cc(C(F)(F)F)c2)cn1 [Nilotinib] + N=C(N)NC(=N)NCCc1ccccc1 [Phenformin] (partner 250 µM)
relative viability (NCI-H2405; first compound 0.001 µM): 0.381
relative viability (NCI-H2405; first compound 0.003162 µM): 0.357
relative viability (NCI-H2405; first compound 0.01 µM): 0.397
relative viability (NCI-H2405; first compound 0.03162 µM): 0.356
relative viability (NCI-H2405; first compound 0.1 µM): 0.346
relative viability (NCI-H2009; first compound 0.001 µM): 0.417
relative viability (NCI-H2009; first compound 0.003162 µM): 0.464
relative viability (NCI-H2009; first compound 0.01 µM): 0.463
relative viability (NCI-H2009; first compound 0.03162 µM): 0.387
relative viability (NCI-H2009; first compound 0.1 µM): 0.338
relative viability (LOU-NH91; first compound 0.001 µM): 0.752
relative viability (LOU-NH91; first compound 0.003162 µM): 0.736
relative viability (LOU-NH91; first compound 0.01 µM): 0.861
relative viability (LOU-NH91; first compound 0.03162 µM): 0.663
relative viability (LOU-NH91; first compound 0.1 µM): 0.75
relative viability (NCI-H1623; first compound 0.001 µM): 0.578
relative viability (NCI-H1623; first compound 0.003162 µM): 0.585
relative viability (NCI-H1623; first compound 0.01 µM): 0.605
relative viability (NCI-H1623; first compound 0.03162 µM): 0.566
relative viability (NCI-H1623; first compound 0.1 µM): 0.601
relative viability (NCI-H647; first compound 0.001 µM): 0.627
relative viability (NCI-H647; first compound 0.003162 µM): 0.628
relative viability (NCI-H647; first compound 0.01 µM): 0.594
relative viability (NCI-H647; first compound 0.03162 µM): 0.449
relative viability (NCI-H647; first compound 0.1 µM): 0.336
relative viability (A549; first compound 0.001 µM): 0.147
relative viability (A549; first compound 0.003162 µM): 0.27
relative viability (A549; first compound 0.01 µM): 0.274
relative viability (A549; first compound 0.03162 µM): 0.172
relative viability (A549; first compound 0.1 µM): 0.14

Cc1cn(-c2cc(NC(=O)c3ccc(C)c(Nc4nccc(-c5cccnc5)n4)c3)cc(C(F)(F)F)c2)cn1 [Nilotinib] + CCNC(=O)c1noc(-c2cc(C(C)C)c(O)cc2O)c1-c1ccc(CN2CCOCC2)cc1 [Luminespib] (partner 0.01 µM)
relative viability (NCI-H2405; first compound 0.001 µM): 0.76
relative viability (NCI-H2405; first compound 0.003162 µM): 0.575
relative viability (NCI-H2405; first compound 0.01 µM): 0.756
relative viability (NCI-H2405; first compound 0.03162 µM): 0.448
relative viability (NCI-H2405; first compound 0.1 µM): 0.658
relative viability (NCI-H2009; first compound 0.001 µM): 0.886
relative viability (NCI-H2009; first compound 0.003162 µM): 1.14
relative viability (NCI-H2009; first compound 0.01 µM): 1.16
relative viability (NCI-H2009; first compound 0.03162 µM): 0.955
relative viability (NCI-H2009; first compound 0.1 µM): 1.12
relative viability (LOU-NH91; first compound 0.001 µM): 0.318
relative viability (LOU-NH91; first compound 0.003162 µM): 0.308
relative viability (LOU-NH91; first compound 0.01 µM): 0.346
relative viability (LOU-NH91; first compound 0.03162 µM): 0.276
relative viability (LOU-NH91; first compound 0.1 µM): 0.321
relative viability (NCI-H1623; first compound 0.001 µM): 0.43
relative viability (NCI-H1623; first compound 0.003162 µM): 0.516
relative viability (NCI-H1623; first compound 0.01 µM): 0.63
relative viability (NCI-H1623; first compound 0.03162 µM): 0.498
relative viability (NCI-H1623; first compound 0.1 µM): 0.544
relative viability (NCI-H647; first compound 0.001 µM): 0.228
relative viability (NCI-H647; first compound 0.003162 µM): 0.194
relative viability (NCI-H647; first compound 0.01 µM): 0.194
relative viability (NCI-H647; first compound 0.03162 µM): 0.129
relative viability (NCI-H647; first compound 0.1 µM): 0.161

CN1CCN(CCOc2cc(OC3CCOCC3)c3c(Nc4c(Cl)ccc5c4OCO5)ncnc3c2)CC1 [Saracatinib] + CCNC(=O)c1noc(-c2cc(C(C)C)c(O)cc2O)c1-c1ccc(CN2CCOCC2)cc1 [Luminespib] (partner 0.01 µM)
relative viability (NCI-H2405; first compound 0.02 µM): 0.588
relative viability (NCI-H2405; first compound 0.2 µM): 0.525
relative viability (NCI-H2405; first compound 0.6325 µM): 0.519
relative viability (NCI-H2405; first compound 2 µM): 0.271
relative viability (NCI-H2009; first compound 0.02 µM): 0.997
relative viability (NCI-H2009; first compound 0.2 µM): 1.04
relative viability (NCI-H2009; first compound 0.6325 µM): 0.951
relative viability (NCI-H2009; first compound 2 µM): 0.913
relative viability (LOU-NH91; first compound 0.02 µM): 0.356
relative viability (LOU-NH91; first compound 0.2 µM): 0.29
relative viability (LOU-NH91; first compound 0.6325 µM): 0.385
relative viability (LOU-NH91; first compound 2 µM): 0.286
relative viability (NCI-H1623; first compound 0.02 µM): 0.527
relative viability (NCI-H1623; first compound 0.2 µM): 0.383
relative viability (NCI-H1623; first compound 0.6325 µM): 0.522
relative viability (NCI-H1623; first compound 2 µM): 0.433
relative viability (NCI-H647; first compound 0.02 µM): 0.175
relative viability (NCI-H647; first compound 0.2 µM): 0.171
relative viability (NCI-H647; first compound 0.6325 µM): 0.303
relative viability (NCI-H647; first compound 2 µM): 0.146

CN1CCN(CCOc2cc(OC3CCOCC3)c3c(Nc4c(Cl)ccc5c4OCO5)ncnc3c2)CC1 [Saracatinib] + Cc1nc(Nc2ncc(C(=O)Nc3c(C)cccc3Cl)s2)cc(N2CCN(CCO)CC2)n1 [Dasatinib] (partner 0.075 µM)
relative viability (NCI-H2405; first compound 0.02 µM): 0.22
relative viability (NCI-H2405; first compound 0.2 µM): 0.223
relative viability (NCI-H2405; first compound 0.6325 µM): 0.228
relative viability (NCI-H2405; first compound 2 µM): 0.169
relative viability (NCI-H2009; first compound 0.02 µM): 0.298
relative viability (NCI-H2009; first compound 0.2 µM): 0.274
relative viability (NCI-H2009; first compound 0.6325 µM): 0.262
relative viability (NCI-H2009; first compound 2 µM): 0.265
relative viability (LOU-NH91; first compound 0.02 µM): 0.507
relative viability (LOU-NH91; first compound 0.2 µM): 0.429
relative viability (LOU-NH91; first compound 0.6325 µM): 0.418
relative viability (LOU-NH91; first compound 2 µM): 0.419
relative viability (NCI-H1623; first compound 0.02 µM): 0.562
relative viability (NCI-H1623; first compound 0.2 µM): 0.416
relative viability (NCI-H1623; first compound 0.6325 µM): 0.468
relative viability (NCI-H1623; first compound 2 µM): 0.406
relative viability (NCI-H647; first compound 0.02 µM): 0.246
relative viability (NCI-H647; first compound 0.2 µM): 0.242
relative viability (NCI-H647; first compound 0.6325 µM): 0.214
relative viability (NCI-H647; first compound 2 µM): 0.246
